Consider 21 compounds from patent publication US20050032873A1, “3-Amino chroman and 2-amino tetralin derivatives” (Wyeth, priority 2003, published 2005).

Read-outs that look alike come from different tables or passages of the source.

The target in experiment [1] is T1, cloned human 5-HT1A receptors (Homo sapiens, UniProt P08908).
T1 construct: expressed in transfected cells
T1 sequence (P08908 1-422): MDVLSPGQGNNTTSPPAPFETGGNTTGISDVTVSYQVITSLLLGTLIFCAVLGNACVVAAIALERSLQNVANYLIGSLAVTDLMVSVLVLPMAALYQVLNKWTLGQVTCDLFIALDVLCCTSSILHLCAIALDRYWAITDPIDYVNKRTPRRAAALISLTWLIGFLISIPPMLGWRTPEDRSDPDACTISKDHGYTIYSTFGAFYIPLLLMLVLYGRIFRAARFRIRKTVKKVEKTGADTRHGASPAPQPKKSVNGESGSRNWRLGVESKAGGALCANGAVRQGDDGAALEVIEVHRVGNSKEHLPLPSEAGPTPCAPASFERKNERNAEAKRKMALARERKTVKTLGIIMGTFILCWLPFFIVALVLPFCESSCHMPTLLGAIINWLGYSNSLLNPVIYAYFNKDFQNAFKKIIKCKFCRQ
The experiment is described as follows: 35S-GTPγS binding assay, 5-HT1A function. In kind it is biochemical. Conditions: for IC50: antagonist potency, reversal of 8-OH-DPAT, read-out: 5-HT1A Function GTPγS IC50; for EC50: agonist potency. A general note: GTPγS is a poorly hydrolysed GTP analogue; its binding reports G protein activation.

The next experiment deals with T2, 5-HT1A receptor (Homo sapiens, UniProt P08908).
T2 sequence (P08908 1-422): T1 sequence (P08908 1-422)
The experiment is described as follows: 5-HT1A receptor affinity: displacement of [3H] 8-OH-DPAT. In kind it is binding. The arrangement: expressed in transfected cells. Conditions: for inhibition at 1 µM: read-out: 5-HT1A Receptor Affinity, % @ 1 μM; for Ki: displacement of [3H] 8-OH-DPAT, CHO cells stably transfected with human 5-HT1A receptors, read-out: 5-HT1A Receptor Affinity Ki. On the technique in general: Displacement assays read how much labelled ligand stays bound in the presence of the test substance.

The target in the next experiment is T3, serotonin transporter (Rattus norvegicus, UniProt P31652).
T3 construct: displace ^3H-paroxetine from male rat cortical membranes; from tissue; host or cells: male rat cortical membranes
Nature of the experiment: 5-HT transporter affinity: displacement of 3H-paroxetine from male rat cortical membranes. Type of experiment: binding. Conditions: displacement of 3H-paroxetine, male rat cortical membranes.

The mark [2] stands for this setting: maximum inhibitory effect, in brackets after IC50.
The mark [3] stands for this setting: read-out: 5-HT Transporter Affinity Ki.
[4] abbreviates: maximum stimulatory effect, in brackets after EC50, read-out: 5-HT1A Function GTPγS (Emax).
Where [5] appears, read: maximum inhibitory effect, in brackets after IC50, read-out: 5-HT1A Function GTPγS (Imax).
Where [6] appears, read: 5-HT Transporter Affinity Ki (nM).

T3 sequence (P31652 whole entry): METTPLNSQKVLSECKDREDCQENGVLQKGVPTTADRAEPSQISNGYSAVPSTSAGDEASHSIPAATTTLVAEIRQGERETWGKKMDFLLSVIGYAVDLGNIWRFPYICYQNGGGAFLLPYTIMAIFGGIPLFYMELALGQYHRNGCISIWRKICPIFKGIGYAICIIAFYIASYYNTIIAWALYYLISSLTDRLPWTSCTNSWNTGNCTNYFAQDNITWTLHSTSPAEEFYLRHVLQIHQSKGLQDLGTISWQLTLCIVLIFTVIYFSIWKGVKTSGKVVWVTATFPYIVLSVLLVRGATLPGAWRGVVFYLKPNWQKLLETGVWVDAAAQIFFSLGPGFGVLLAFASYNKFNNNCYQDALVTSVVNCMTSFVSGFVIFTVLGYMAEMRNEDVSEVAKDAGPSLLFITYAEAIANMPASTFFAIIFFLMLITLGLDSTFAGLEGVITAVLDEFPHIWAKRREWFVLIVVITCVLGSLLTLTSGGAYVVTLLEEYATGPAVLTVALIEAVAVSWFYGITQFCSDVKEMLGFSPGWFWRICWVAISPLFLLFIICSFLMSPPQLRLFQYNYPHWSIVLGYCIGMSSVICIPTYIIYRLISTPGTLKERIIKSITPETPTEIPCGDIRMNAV

By IC50 is commonly meant the midpoint of a concentration-inhibition curve. Usually Ki stands for a dissociation constant, usually derived from enzyme kinetics or from competition with a known ligand. Regarding `CC(CCc1c[nH]c2c(F)cc(F)cc12)N(CC1CC1)C1COc2c(F)ccc(C(N)=O)c2C1` (single isomer, unassigned) [Compound 154d, 3-{(cyclopropylmethyl)[3-(5,7-difluoro-1H-indol-3-yl)-1-methylpropyl]amino}-8-fluorochromane-5-carboxamide], the IC50 in experiment [1] is 7070 nM. Further, in experiment [1] (setting [2]), the 5-HT1A Function GTPγS (Imax) came out at 71%. The inhibition at 1 µM on 5-HT1A receptor is 2%. Moreover, at serotonin transporter (setting [3]), the Ki was found to be 4.81 nM.

One may read the EC50 as the concentration that produces a half-maximal response. Lower therefore signals greater potency. `NC(=O)c1cccc2c1C[C@@H](NCCCc1c[nH]c3ccc(F)cc13)CO2` [Compound 133b, (3R)-3-{[3-(5-fluoro-1H-indol-3-yl)propyl]amino}chromane-5-carboxamide] gave an EC50 in experiment [1] of 1000 nM. The Emax in experiment [1] (setting [4]) was 83%. In addition, the Ki amounted to 38.6 nM on 5-HT1A receptor and 43.2 nM at serotonin transporter (setting [3]).

For `NC(=O)c1ccc(F)c2c1CC(N(CC1CCc3[nH]c4ccc(F)cc4c3C1)C1CCC1)CO2` (single isomer, unassigned; (-)) [Compound 174a, (−)-3-{cyclobutyl[(6-fluoro-2,3,4,9-tetrahydro-1H-carbazol-3-yl)methyl]amino}-8-fluorochromane-5-carboxamide], in experiment [1], the IC50 turned out to be 8000 nM. This compound also displayed a 5-HT1A Function GTPγS (Imax) in experiment [1] (setting [2]) of 50%. Further, the inhibition at 1 µM on 5-HT1A receptor was found to be 49%. For the same compound, at serotonin transporter (setting [3]), the Ki stood at 855 nM.

`NC(=O)c1ccc(F)c2c1OCC(NCCCc1c[nH]c3ccc(F)cc13)C2` (stereo not drawn) [Compound 119, 5-fluoro-3-{[3-(5-fluoro-1H-indol-3-yl)propyl]amino}chromane-8-carboxamide] showed an EC50 in experiment [1] of 3160 nM. The Emax in experiment [1] (setting [4]) turned out to be 100%. For the same compound, the figures for the Ki at 5-HT1A receptor and on serotonin transporter (setting [3]) were 36.9 nM and 14.2 nM, respectively.

`CCCN(CCCc1c[nH]c2ccc(F)cc12)C1COc2c(C(N)=O)ccc(F)c2C1` (stereo not drawn) [Compound 120, 5-fluoro-3-[[3-(5-fluoro-1H-indol-3-yl)propyl](propyl)amino]chromane-8-carboxamide]: the EC50 in experiment [1] was 1100 nM. The Emax in experiment [1] (setting [4]) amounted to 67%. In addition, the Ki at 5-HT1A receptor is 139 nM; on serotonin transporter (setting [3]), 22.5 nM.

`O=C(Nc1ccccc1)c1ccc(F)c2c1CC(N(CCCc1c[nH]c3ccc(F)cc13)C1CCC1)CO2` (stereo not drawn) [Compound 70, 3-{cyclobutyl[3-(5-fluoro-1H-indol-3-yl)propyl]amino}-8-fluoro-N-phenylchromane-5-carboxamide] registered an EC50 in experiment [1] of 1800 nM. In addition, the Emax in experiment [1] (setting [4]) stood at 22%. The inhibition at 1 µM on 5-HT1A receptor worked out at 36%. The Ki on serotonin transporter (setting [3]) was 37.2 nM.

As to `COC(=O)c1ccc(F)c2c1CC(N(CCCCc1c[nH]c3ccc(F)cc13)C1CCC1)CO2` (stereo not drawn) [Compound 58, Methyl 3-{cyclobutyl[4-(5-fluoro-1H-indol-3-yl)butyl]amino}-8-fluorochromane-5-carboxylate], the EC50 in experiment [1] is 8020 nM. In experiment [1] (setting [4]), the Emax was determined as 49%. In addition, the values for the Ki at 5-HT1A receptor and at serotonin transporter (setting [3]) were 202 nM and 35.6 nM, respectively.

`O=C(NC1CC1)c1cccc2c1CC(N(CCCc1c[nH]c3c(F)cc(F)cc13)C1CCC1)CO2` (stereo not drawn) [Compound 142, 3-{cyclobutyl[3-(5,7-difluoro-1H-indol-3-yl)propyl]amino}-N-cyclopropylchromane-5-carboxamide] yielded an EC50 in experiment [1] of 122 nM. Moreover, in experiment [1] (setting [4]), the Emax worked out at 54%. Besides, the Ki at 5-HT1A receptor is 4.03 nM; at serotonin transporter (setting [3]) it was 3.88 nM.

As for `CCCN(CCCCc1c[nH]c2ccc(F)cc12)C1COc2c(C(N)=O)ccc(F)c2C1` (stereo not drawn) [Compound 124, 5-fluoro-3-[[4-(5-fluoro-1H-indol-3-yl)butyl](propyl)amino]chromane-8-carboxamide], a half-maximal effect in experiment [1] (EC50) was put at 698 nM. The Emax in experiment [1] (setting [4]) amounted to 41%. Further, on 5-HT1A receptor, the inhibition at 1 µM is 48%. The Ki on serotonin transporter (setting [3]) came to 9.9 nM.

With `O=C(NC1CCCC1)c1ccc(F)c2c1CC(N(CCCc1c[nH]c3ccc(F)cc13)C1CCC1)CO2` (stereo not drawn) [Compound 66, 3-{cyclobutyl[3-(5-fluoro-1H-indol-3-yl)propyl]amino}-N-cyclopentyl-8-fluorochromane-5-carboxamide], the EC50 in experiment [1] stood at 7500 nM. In addition, the Emax in experiment [1] (setting [4]) came out at 38%. Further, the inhibition at 1 µM at 5-HT1A receptor is 41%. In addition, the Ki on serotonin transporter (setting [3]) came to 5.65 nM.

Regarding `NC(=O)c1ccc(F)c2c1CC(N(CCCCn1ccc3cc(F)ccc31)C1CCC1)CO2` (stereo not drawn) [Compound 200, 3-{Cyclobutyl[4-(5-fluoro-1H-indol-1-yl)butyl]amino}-8-fluorochromane-5-carboxamide], the IC50 in experiment [1] was 1110 nM. Also, the Emax in experiment [1] (setting [5]) was determined as 100%. Further, the results for the Ki on 5-HT1A receptor and at serotonin transporter (setting [3]) were 10.8 nM and 241 nM, respectively.

Compound `CCCNC(=O)c1cccc2c1CC(N(CCCc1c[nH]c3c(F)cc(F)cc13)C1CCC1)CO2` (stereo not drawn) [Compound 140, 3-{cyclobutyl[3-(5,7-difluoro-1H-indol-3-yl)propyl]amino}-N-propylchromane-5-carboxamide] had an EC50 in experiment [1] of 1020 nM. Moreover, the Emax in experiment [1] (setting [4]) was determined as 65%. Besides, the Ki on 5-HT1A receptor was found to be 39.2 nM; at serotonin transporter (setting [3]), 3.78 nM.

For `NC(=O)c1ccc(F)c2c1CC(N(CCCCn1ccc3cccc(F)c31)CC1CC1)CO2` (stereo not drawn) [Compound 191, 3-{(Cyclopropylmethyl)[4-(7-fluoro-1H-indol-1-yl)butyl]amino}-8-fluorochromane-5-carboxamide], in experiment [1], the IC50 is 204 nM. Besides, the Emax in experiment [1] (setting [5]) turned out to be 74%. Further, the Ki was found to be 19.3 nM at 5-HT1A receptor and 38.7 nM on serotonin transporter (setting [3]).

Take `COC(=O)c1ccc(F)c2c1C[C@H](N(CCCCc1c[nH]c3ccc(F)cc13)C1CCC1)CO2` [Compound 58a, Methyl (3S)-3-{cyclobutyl[4-(5-fluoro-1H-indol-3-yl)butyl]amino}-8-fluorochromane-5-carboxylate]: the IC50 in experiment [1] came out at 1960 nM. In addition, in experiment [1] (setting [5]), the Emax came to 25%. Besides, the inhibition at 1 µM at 5-HT1A receptor was found to be 0%. In addition, the Ki on serotonin transporter (setting [3]) turned out to be 46.6 nM.

`COc1cccc2c(CCN(C3CCC3)C3COc4c(F)ccc(C(N)=O)c4C3)coc12` (stereo not drawn) [Compound 159, 3-{cyclobutyl[2-(7-methoxy-1-benzofuran-3-yl)ethyl]amino}-8-fluorochromane-5-carboxamide]: in experiment [1], the concentration for half-maximal inhibition (IC50) turned out to be 5000 nM. Further, the Emax in experiment [1] (setting [5]) amounted to 25%. The inhibition at 1 µM at 5-HT1A receptor worked out at 30%. Besides, the Ki on serotonin transporter (setting [3]) amounted to 149 nM.

In the case of `CCNC(=O)c1cccc2c1CC(N(CCCc1c[nH]c3c(F)cc(F)cc13)C1CCC1)CO2` (stereo not drawn) [Compound 139, 3-{cyclobutyl[3-(5,7-difluoro-1H-indol-3-yl)propyl]amino}-N-ethylchromane-5-carboxamide], the EC50 in experiment [1] is 180 nM. Besides, the Emax in experiment [1] (setting [4]) is 81%. Further, the figures for the Ki on 5-HT1A receptor and on serotonin transporter (setting [3]) were 4.83 nM and 3.9 nM, respectively.

`COc1cccc2c1CC(N[C@H]1CC[C@@H](c3c[nH]c4ccc(C#N)cc43)CC1)CO2` (relative stereo) [Compound 180a, 3-[(1,4-cis)-4-(5-Methoxy-chroman-3-ylamino)-cyclohexyl]-1H-indole-5-carbonitrile]: in experiment [1], it took 4230 nM to reach a half-maximal effect (EC50). Besides, the Emax in experiment [1] (setting [4]) is 100%. Also, the inhibition at 1 µM at 5-HT1A receptor turned out to be 19%. For the same compound, at serotonin transporter (setting [6]), the Ki stood at 13 nM.

Turning to `CCN(CCc1c[nH]c2ccc(F)cc12)C1COc2c(F)ccc(C(=O)NC)c2C1` (stereo not drawn) [Compound 85, 3-{ethyl[2-(5-fluoro-1H-indol-3-yl)ethyl]amino}-8-fluoro-N-methylchromane-5-carboxamide], the IC50 in experiment [1] was determined as 3580 nM. Further, in experiment [1] (setting [5]), the Emax stood at 72%. Further, the inhibition at 1 µM at 5-HT1A receptor was found to be 46%. For the same compound, the Ki on serotonin transporter (setting [6]) was 35.4 nM.

`CC(C)NC(=O)c1cccc2c1CC(N(CCCc1c[nH]c3c(F)cc(F)cc13)C1CCC1)CO2` (stereo not drawn) [Compound 141, 3-{cyclobutyl[3-(5,7-difluoro-1H-indol-3-yl)propyl]amino}-N-isopropylchromane-5-carboxamide] returned an EC50 in experiment [1] of 287 nM. Besides, in experiment [1] (setting [4]), the Emax was determined as 99%. Besides, the figures for the Ki at 5-HT1A receptor and at serotonin transporter (setting [3]) were 7.69 nM and 3.52 nM, respectively.

In experiment [1], `COc1cccc2c1CC(N[C@H]1CC[C@H](c3c[nH]c4ccc(C#N)cc43)CC1)CO2` (relative stereo) [Compound 180b, 3-[(1,4-trans)-4-(5-Methoxy-chroman-3-ylamino)-cyclohexyl]-1H-indole-5-carbonitrile] had an EC50 of 925 nM. Moreover, the Emax in experiment [1] (setting [4]) is 50.5%. Also, the inhibition at 1 µM at 5-HT1A receptor worked out at 20%. The same compound yielded a Ki on serotonin transporter (setting [6]) of 2.46 nM.

`NC(=O)c1ccc(F)c2c1OCC(N(CCCc1c[nH]c3ccc(F)cc13)CC1CC1)C2` (stereo not drawn) [Compound 121, 3-{(cyclopropylmethyl)[3-(5-fluoro-1H-indol-3-yl)propyl]amino}-5-fluorochromane-8-carboxamide] registered an EC50 in experiment [1] of 3820 nM. The Emax in experiment [1] (setting [4]) is 70%. Further, the Ki at 5-HT1A receptor amounted to 67.7 nM; on serotonin transporter (setting [3]) it was 41.8 nM.
